{"source": "patent US6365628B1", "about": "(Thia Medica AS, priority 1998, dated 2002)", "key": {"[1]": {"system": "male Wistar rats", "assay": "Body weight of male Wistar rats after 12 weeks of treatment (Example 6)", "type": "in vivo, rat", "conditions": "oral TTA", "procedure": "2 groups of 6 male Wistar Rats were randomly selected, and studied for weight development over a period of 12 week. The body weight of each Wistar rat was measured at the start of the experiment. All animals in both groups received individually the same amount of food (nutrition) during the experimental period of 12 weeks. All animals in one of the groups were orally administrated with the medicament comprising TTA. The other group was the control group (CMC). After the 12 week period the body weight of rats were measured again."}, "[2]": {"system": "young obese Zucker (fa/fa) rats", "assay": "Body weight gain, liver and adipose tissue weights in young obese Zucker rats (Example 9)", "type": "in vivo, rat", "conditions": "5 week-old male obese Zucker (fa/fa) rats, TTA 300/kg/day in 0.5% CMC, 11 days, means ± SD", "procedure": "The obese Zucker (fa/fa) rats used in this study were bred at the U 465 INSERM animal facility from pairs originally provided by the Harriet G. Bird Laboratory (Stow, Mass., USA). Unless otherwise stated, the animals were maintained under a constant light-dark cycle (light from 7:00 a.m. to 7:00 p.m.) at 21±1° C. and were given free access to food and water. Three rats were housed per cage. Weight gains were recorded daily.\n5 week-old male obese Zucker (fa/fa) rats fed with TTA, 300/kg/day suspended in 0.5% CMC. Control animals received CMC only. Following 11 days of treatment, rats were killed by cervical dislocation, liver and epididymal adipose tissue pads were dissected out and weighed. Data are means±SD of 6 animals in the control- and 6 animals in the experimental group."}, "[3]": {"system": "5 weeks old Zucker (fa/fa) rats", "assay": "Blood insulin and glucose in 5 weeks old Zucker (fa/fa) rats (Example 13)", "type": "in vivo, rat", "conditions": "300 mg/kg/day oral gavage, 11 days (FIG. 5)", "procedure": "Glucose (GLU, Boehringer Mannheim, Germany), free fatty acids (NEFA, C ACS-ACOD kit; Wako Chemicals, Dalton, USA) and b-hydroxybutyrate (310-A kit; Sigma Diagnostics Inc., St. Louis, USA) concentrations were measured using enzymatic methods. Insulin concentrations were determined with radioimmunoassay by (CIS bio International, Gif sur Yvette, France) using rat insulin as standard in the Zucker rats. In the Wistar Charles River rats, plasma glucose concentrations were measured with the aid of Beckman Glucose Analyzer (Fullerton, Calif., USA). Plasma insulin levels were measured using a RIA kit from Linco Research Inc. (St. Charles, Mo., USA). Phospholipids were measured by the enzymatic method of bioMérieux, Marcy-l {grave over ( )}Etoile, France, Triacylglycerol by the Technicon Method no. SA4-0324L90, USA and Cholesterol by the Technicon Method no. SA4-0305L90, USA.\nThe rats were administered TTA at a dose of 300 mg/kg/day suspended in 0.5% CMC (n=6) by oral gavage. Following 11 days of treatment, rats were killed by cervical dislocation. Blood was collected and the levels of insulin and glucose measured as indicated in the method section. Data are means±S.D."}, "[4]": {"system": "5 weeks old Zucker (fa/fa) rats", "assay": "Intravenous glucose tolerance test (IVGTT) (Example 15)", "type": "in vivo, rat", "procedure": "Male Zucker (fa/fa) rats (5 weeks old) were anaesthetised after a 5-hours fast, by intraperitoneal injection of sodium pentobarbital (50 mg/kg). The rats were injected with glucose (0.55 g/kg) in the saphenous vein and blood samples were collected from the tail vein in heparinized tubes at time 0, 5, 10, 15, 20 and 30 minutes after the glucose load. Samples were kept on ice, centrifuged and plasma was stored at −20° C. until analysis."}, "[5]": {"system": "male Wistar rats", "assay": "Hepatic levels of triacylglycerol in rats fed fatty acid analogues (Example 17)", "type": "in vivo, rat", "conditions": "TTA 150 mg/kg/day for 6 days, no prefeeding", "text": "Even an increased hepatic level of triacylglycerol may be relieved by TTA. Feeding rats with an inhibitor of fatty acid oxidation will increase the level of hepatic triacylglycerol resulting in fatty liver. Tetradecyl-4-thia propionic acid (TTP) is a fatty acid analogue with a sulphur atom in the 4 position. This analogue inhibits the β-oxidation of fatty acids due to the formation of a mitochondrial inhibitor. Feeding rats with this analogue results in the formation of fatty. However, if the rats are fed with a combination of TTA and TTP, the formation of fatty liver is avoided (Table 8). This provides evidence that TTA may be used for the treatment of conditions with an increased hepatic level of triacylglycerol. Male Wistar rats had free access to water and rat maintenance chow. They were fed palmitic acid or fatty acid analogues suspended in 0.5% CMC for 6 days. In some experiments TTA or TTP were fed for 3 days before feeding both for 6 days. At the end of the experiment the rats were fasted overnight, killed, the liver removed and homogenized. Triacylglycerol was measured in the homogenate."}, "[6]": {"system": "obese Zucker fa/fa rats", "assay": "Fatty acid composition in liver and plasma of obese Zucker fa/fa rats (Example 19)", "type": "in vivo, rat", "conditions": "300 mg/day/kg gavage once daily for 10 days, delta-9-desaturated product of TTA", "procedure": "Male obese Zucker fa/fa rats, weighing 100 g at the start of the experiment, were housed in pairs in metal wire cages in a room maintained at 12 h light-dark cycles and a constant temperature of 20±3° C. The animals were acclimatised for at least one week under these conditions before the start of the experiment.\nTTA and palmitic acid (control), was suspended in 0.5% (w/v) carboxymethyl cellulose (CMC) and administered at a dose of 300 mg/day/kg body weight, by gastric intubation (gavage) once daily for 10 days. The rats were fasted for 2 hours before termination of the experiment. Blood and organs were collected. Total lipids were extracted from liver and plasma. The lipids were evaporated, saponified and esterified prior to separation using a Carlo Erba 2900 gas-chromatograph."}, "[7]": {"biological_target": "T1, PPARα (Homo sapiens, UniProt Q07869)", "T1 sequence (Q07869 1-468)": "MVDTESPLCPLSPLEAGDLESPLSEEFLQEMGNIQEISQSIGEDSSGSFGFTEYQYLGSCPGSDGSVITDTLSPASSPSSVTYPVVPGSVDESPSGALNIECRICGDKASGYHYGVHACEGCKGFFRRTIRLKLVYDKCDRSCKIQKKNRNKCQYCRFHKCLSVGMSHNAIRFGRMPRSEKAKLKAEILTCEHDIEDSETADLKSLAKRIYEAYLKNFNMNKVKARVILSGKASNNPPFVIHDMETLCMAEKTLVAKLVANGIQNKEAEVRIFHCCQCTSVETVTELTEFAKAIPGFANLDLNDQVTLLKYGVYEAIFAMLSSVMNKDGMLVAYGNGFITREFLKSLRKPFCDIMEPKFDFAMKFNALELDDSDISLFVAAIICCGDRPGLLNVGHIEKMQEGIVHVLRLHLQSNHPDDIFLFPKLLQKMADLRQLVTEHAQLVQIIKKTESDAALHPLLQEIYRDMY", "assay": "Ligand of PPARα", "type": "binding"}}}
{"substance": "Tetradecylthioacetic acid [TTA]", "values": [{"measurement": "Body weight gain/grams", "setting": "[1]", "result": "234 ± 20", "unit": "grams"}, {"measurement": "Body weight gain", "setting": "[2]", "result": "6.23 ± 0.28", "unit": "g/day"}, {"measurement": "Epididymal adipose tissue/body weight (%)", "setting": "[2]", "result": "0.78 ± 0.02", "unit": "%"}, {"measurement": "Reduction of blood concentration of glucose", "setting": "[3]", "result": "~15", "unit": "%"}, {"measurement": "Reduction of blood insulin concentration", "setting": "[3]", "result": "~40", "unit": "%"}, {"measurement": "IVGTT glucose curves", "setting": "[4]; TTA treated vs control (FIG. 7B)", "result": "normal and comparable"}, {"measurement": "Plasma insulin response to glucose (IVGTT)", "setting": "[4]; glucose 0.55 g/kg i.v. (FIG. 7A)", "result": "significantly lower"}, {"measurement": "Hepatic triacylglycerol TG (μmol/g)", "setting": "[5]", "result": "7,7 ± 2,9 μmol/g"}, {"measurement": "Monounsaturated tetradecylthioacetic acid, fatty acid composition in liver (% of total)", "setting": "[6]", "result": "1.1 ± 0.2 % of total"}, {"measurement": "Monounsaturated tetradecylthioacetic acid, fatty acid composition in plasma (% of total)", "setting": "[6]", "result": "0.2 ± 0.1 % of total"}, {"measurement": "Ligand of PPARα", "setting": "[7]", "result": "potent ligand"}]}
